Experiments:
[1] = system: Vascular smooth muscle cells (BO54); test: Scratch-migration assay with morphological toxicity grading; assay type: cell-based, baboon; parameters: key to Migration Grade in the Cleared Area of the Well / Migration Grade in an Undisturbed Region of the Well: - = no migration; +1 = minimal; +2 = mild; +3 = moderate; +4 = marked (maximum density; limit of cell contact inhibition) migration
Experimental: Scratch assays to determine the extent of smooth muscle cell migration inhibition by cytochalasin B were performed in accordance with the following protocol:
Vascular smooth muscle cells (BO54) were derived from explants of baboon aortic smooth muscle, as described in Example 1. The cells were grown in flat bottom, six well tissue culture plates, which hold about 5 ml of medium. The vascular smooth muscle cells were plated at 200,000 cells/well and placed at 37°C in a humidified 5% CO2 incubator for 18 hours. The wells were then scratched with a sterile portion of a single edge razor blade that was held by clamp or pliers and was brought aseptically into contact with the bottom of the well at a 90° angle. The cells from a small area along the scratch were removed by a sterile cotton tipped applicator while the blade was in contact with the bottom of the well. After incubation, the presence of cells in the "scratched" area is indicative of cell migration across the scratch line.
Briefly, a stock solution of cytochalasin B (Sigma Chemical Co.) in dimethyl sulfoxide (DMSO) at 1 mg/ml was prepared. Test dilutions of cytochalasin B or control medium were added. Each experiment included two sets of plates: • A set: Test agent exposure for 1, 3, 6, 8 and 10 days only; and • B set: Test agent exposure for 1, 3, 6, 8 and 10 days, followed by a seven day recovery time with control medium. Both sets of plates were fixed (10% formalin in PBS) and stained (0.02% crystal violet) at the end of the timed exposures. Test concentrations for cytochalasin B were 1, 0.1 and 0.01 µg/ml, and a negative medium control was included. Fresh medium and drug were supplied 3 times per week.
In this Table, "M" indicates Migration Grade, wherein - = no migration; +1 = minimal; +2 = mild; +3 = moderate; and +4 = marked (maximum density; limit of cell contact inhibition) migration of vascular smooth muscle cells into the cleared area adjacent to the scratch. In this Table, "T" denotes a morphological Toxicity Grade, wherein - = no toxicity; +1 = minimal; +2 = mild; +3 = moderate; and +4 = marked toxicity. The migration results are expressed as "Grade in the Cleared Area of the Well / Grade in an Undisturbed Region of the Well." The toxicity values represent a grade for all cells in each well.

[2] = system: Vascular smooth muscle cells; test: DNA synthesis by [3H]-thymidine incorporation in rat vascular smooth muscle cells; assay type: cell-based; conditions: between 12 and 24 hours after stimulation, control 17614 +/- 1714 cpm
Experimental: DNA synthesis was assayed by [^3H]-thymidine incorporation as described in Grainger et al., Biochem. J., 277:145-151, 1991. Vascular smooth muscle cells were subcultured, grown in DMEM + 10% FCS for 24 hours, made quiescent in serum-free DMEM for 48 hours and restimulated with 10% FCS at "0" hours. [^3H]-thymidine (5 microcuries/ml; available from Amersham International) was added 12 hours after restimulation and the cells were harvested after 24 hours. DNA synthesis by adventitial fibroblasts was determined similarly, except that the cells were made quiescent in serum-free DMEM for 24 hours.

[3] = Proliferation of enzyme-dispersed (ED) human VSMC cultures; assay type: cell-based; conditions: human, aortic vsmc ed cultures, cell counting, read-out: concentrations that caused cell death
Experimental: (§1) Human aortic VSMC cultures. Adult human VSMC were obtained from 6 transplant donors (either sex, age range from 3 to 54 years) using the enzyme dispersal or explant technique. In one case, the same donor (a person) was used to establish both an enzyme-dispersed (ED) and explant-derived (EX) cell culture. Prior to enzyme-dispersion or explanting treatment, human aortas were obtained within 18 h of death. The endothelium layer was removed with a scalpel blade and strips of smooth muscle cells (tunica media) were removed with forceps and chopped into small pieces (1 mm^3).
(§2) ED Cultures. The aortic pieces were washed once with serum-free Hanks Balanced Salt Solution, then enzyme-dispersed with collagenase and elastase, as described in Example 7. The cells were plated at an initial density of 1.5 x 10^5 cells/cm^2 and incubated in a humidified atmosphere at 37°C in 5% CO2 in air. The cells were subcultured every 6-7 days (at stationary phase) by releasing them with trypsin/EDTA and diluting them 1:1.5 in D-MEM + 10% FCS. Subcultured ED cells were cultured with D-MEM + 20% FCS 24 h after plating, and thereafter at 48 h intervals.
(§3) Cell counting, DNA synthesis assays and assays for total and active TGF-beta were performed as described in Example 7.

human ED cultures = test: as above; assay type: cell-based; conditions: 96 h, cell counting
Experimental: as §1, §2, §3

[4] = 7-day Recovery Post Exposure, 0.01 µg/mL, Day 1
[5] = 7-day Recovery Post Exposure, 0.01 µg/mL, Day 3
[6] = 7-day Recovery Post Exposure, 0.01 µg/mL, Day 6
[7] = 7-day Recovery Post Exposure, 0.01 µg/mL, Day 8
[8] = 7-day Recovery Post Exposure, 0.01 µg/mL, Day 10
[9] = 7-day Recovery Post Exposure, 0.1 µg/mL, Day 1
[10] = 7-day Recovery Post Exposure, 0.1 µg/mL, Day 3
[11] = 7-day Recovery Post Exposure, 0.1 µg/mL, Day 6
[12] = 7-day Recovery Post Exposure, 0.1 µg/mL, Day 8
[13] = 7-day Recovery Post Exposure, 0.1 µg/mL, Day 10
[14] = 7-day Recovery Post Exposure, 1.0 µg/mL, Day 1
[15] = 7-day Recovery Post Exposure, 1.0 µg/mL, Day 3
[16] = 7-day Recovery Post Exposure, 1.0 µg/mL, Day 6
[17] = 7-day Recovery Post Exposure, 1.0 µg/mL, Day 8
[18] = 7-day Recovery Post Exposure, 1.0 µg/mL, Day 10
[19] = Continuous Exposure, 0.01 µg/mL, Day 1
[20] = Continuous Exposure, 0.01 µg/mL, Day 3
[21] = Continuous Exposure, 0.01 µg/mL, Day 6
[22] = Continuous Exposure, 0.01 µg/mL, Day 8
[23] = Continuous Exposure, 0.01 µg/mL, Day 10
[24] = Continuous Exposure, 0.1 µg/mL, Day 1
[25] = Continuous Exposure, 0.1 µg/mL, Day 3
[26] = Continuous Exposure, 0.1 µg/mL, Day 6
[27] = Continuous Exposure, 0.1 µg/mL, Day 8
[28] = Continuous Exposure, 0.1 µg/mL, Day 10
[29] = Continuous Exposure, 1.0 µg/mL, Day 1
[30] = Continuous Exposure, 1.0 µg/mL, Day 3
[31] = Continuous Exposure, 1.0 µg/mL, Day 6
[32] = Continuous Exposure, 1.0 µg/mL, Day 8
[33] = Continuous Exposure, 1.0 µg/mL, Day 10

cytochalasin B
+2: Migration Grade in the Cleared Area of the Well [1, 14] | Migration Grade in the Cleared Area of the Well [1, 15] | Migration Grade in the Cleared Area of the Well [1, 16] | Migration Grade in the Cleared Area of the Well [1, 17] | Migration Grade in the Cleared Area of the Well [1, 18] | Migration Grade in the Cleared Area of the Well [1, 26] | Migration Grade in the Cleared Area of the Well [1, 27] | Migration Grade in the Cleared Area of the Well [1, 28] | Migration Grade in an Undisturbed Region of the Well [1, 29] | Migration Grade in an Undisturbed Region of the Well [1, 30] | Migration Grade in an Undisturbed Region of the Well [1, 31] | Migration Grade in an Undisturbed Region of the Well [1, 32] | Migration Grade in an Undisturbed Region of the Well [1, 33]
+3 to +4: ability to migrate following removal of the therapeutic agent (grade) ([1]; 0.1 µg/ml, even after 10 days of continuous exposure)
+1 to +2: migration of vascular smooth muscle cells into the cleared area adjacent to the scratch (grade) ([1]; 0.1 µg/ml, summary of Table 1)
+4: Migration Grade in an Undisturbed Region of the Well [1, 4] | Migration Grade in an Undisturbed Region of the Well [1, 5] | Migration Grade in an Undisturbed Region of the Well [1, 9] | Migration Grade in an Undisturbed Region of the Well [1, 10] | Migration Grade in an Undisturbed Region of the Well [1, 11] | Migration Grade in an Undisturbed Region of the Well [1, 12] | Migration Grade in an Undisturbed Region of the Well [1, 20] | Migration Grade in an Undisturbed Region of the Well [1, 21] | Migration Grade in an Undisturbed Region of the Well [1, 22] | Migration Grade in an Undisturbed Region of the Well [1, 23] | Migration Grade in an Undisturbed Region of the Well [1, 25] | Migration Grade in an Undisturbed Region of the Well [1, 26] | Migration Grade in an Undisturbed Region of the Well [1, 27] | Migration Grade in an Undisturbed Region of the Well [1, 28]
+1: Migration Grade in the Cleared Area of the Well [1, 19] | Migration Grade in the Cleared Area of the Well [1, 24] | Migration Grade in the Cleared Area of the Well [1, 25]
+4/+4: Migration Grade in an Undisturbed Region of the Well [1, 6] | Migration Grade in the Cleared Area of the Well [1, 6] | Migration Grade in an Undisturbed Region of the Well [1, 7] | Migration Grade in the Cleared Area of the Well [1, 7] | Migration Grade in an Undisturbed Region of the Well [1, 8] | Migration Grade in the Cleared Area of the Well [1, 8] | Migration Grade in an Undisturbed Region of the Well [1, 13] | Migration Grade in the Cleared Area of the Well [1, 13]
-: Migration Grade in the Cleared Area of the Well [1, 29] | Migration Grade in the Cleared Area of the Well [1, 30] | Migration Grade in the Cleared Area of the Well [1, 31] | Migration Grade in the Cleared Area of the Well [1, 32] | Migration Grade in the Cleared Area of the Well [1, 33]
+3: Migration Grade in the Cleared Area of the Well [1, 4] | Migration Grade in the Cleared Area of the Well [1, 5] | Migration Grade in the Cleared Area of the Well [1, 9] | Migration Grade in the Cleared Area of the Well [1, 10] | Migration Grade in the Cleared Area of the Well [1, 11] | Migration Grade in the Cleared Area of the Well [1, 12] | Migration Grade in an Undisturbed Region of the Well [1, 14] | Migration Grade in an Undisturbed Region of the Well [1, 15] | Migration Grade in an Undisturbed Region of the Well [1, 16] | Migration Grade in an Undisturbed Region of the Well [1, 17] | Migration Grade in an Undisturbed Region of the Well [1, 18] | Migration Grade in an Undisturbed Region of the Well [1, 19] | Migration Grade in the Cleared Area of the Well [1, 20] | Migration Grade in the Cleared Area of the Well [1, 21] | Migration Grade in the Cleared Area of the Well [1, 22] | Migration Grade in the Cleared Area of the Well [1, 23] | Migration Grade in an Undisturbed Region of the Well [1, 24]

CC/C(=C(\c1ccccc1)c1ccc(OCCN(C)C)cc1)c1ccccc1 [tamoxifen, trans-2-[4-(1,2-diphenyl-1-butenyl)phenoxy]-N,N-dimethylethylamine]
> 33 µM: MCC at 96 h [3]
below 10 µM: concentrations that did not affect the rate of proliferation (human ED cultures)
16898 +/- 3417 cpm: DNA synthesis, [3H]-thymidine incorporation ([2]; 10 micromolar)
18002 +/- 4167 cpm: DNA synthesis, [3H]-thymidine incorporation ([2]; 50 micromolar)

Reference: EP1510220B1 (priority 1993, dated 1994)
